# Experiment: Thermo Scientific Hypersil GOLD aQ, 100 × 2.1 mm, 1.9 µm, 30 °C, 0.3 mL/min, estimated dead time 0.73 min; A: water + 0.01% formic acid + 4 mM ammonium formate; B: methanol + 0.01% formic acid + 4 mM ammonium formate; gradient (min/%B) 0/5 1/5 8/100 12/100
# Conditions: stereoisomer not certain
row,Structure (SMILES),LC retention time
1,CCOP(=S)(OCC)SCn1nnc2ccccc2c1=O,9.92 min
2,CCC(C)C1OC2(C=CC1C)CC1CC(CC=C(C)C(OC3CC(OC)C(OC4CC(OC)C(NC)C(C)O4)C(C)O3)C(C)C=CC=C3COC4C(O)C(C)=CC(C(=O)O1)C34O)O2 (stereo unspecified),11.9 min
3,CCCN(CC)CC1COC2(CCC(C(C)(C)C)CC2)O1 (stereo unspecified),9.58 min
4,COP(N)(=O)SC (stereo unspecified),1.58 min
5,CCS(=O)CCSP(=O)(OC)OC (stereo unspecified),6.04 min
6,COc1cc2c(c3oc(=O)c4c(c13)CCOC4=O)C1CCOC1O2 (stereo unspecified),7.8 min
7,CNC(=O)Oc1cc(C)c(S(C)(=O)=O)c(C)c1,6.96 min
8,COC(=O)C=C(C)OP(=O)(OC)OC,7.66 min
9,CNC(=O)ON=C(C)C(C)S(C)=O (stereo unspecified),3.06 min
10,CNC(=O)Oc1cc(C)c(SC)c(C)c1,8.76 min
11,CN(C)NC(=O)CCC(=O)O,1.58 min
12,CC=C(C)C(=O)OC1CC(OC(C)=O)C2(C(=O)OC)COC3C2C12COC(O)(C(=O)OC)C2C(C)(C12OC1(C)C1CC2OC2OC=CC21O)C3O (stereo unspecified),8.67 min
13,CNC(=O)Oc1cccc2ccccc12,8.61 min
14,CC1CCCC(=O)CCCC=Cc2cc(O)cc(O)c2C(=O)O1 (stereo unspecified),9.87 min
15,CCCN(CCC)C(=O)SCC,10.1 min
16,CCOP(=O)(SC(C)CC)SC(C)CC (stereo unspecified),10.5 min
17,COP(=S)(OC)SCN1C(=O)c2ccccc2C1=O,9.39 min
18,COP(=O)(NC(C)=O)SC (stereo unspecified),1.58 min
19,Cc1ccc(N=CN(C)C=Nc2ccc(C)cc2C)c(C)c1,9.09 min
20,CCCCC(C)C(OC(=O)CC(CC(=O)O)C(=O)O)C(CC(C)CCCCCCC(O)CC(O)C(C)N)OC(=O)CC(CC(=O)O)C(=O)O (stereo unspecified),7.46 min
21,CCOC(=O)N(C)C(=O)CSP(=S)(OCC)OCC,9.84 min
22,CNC(=O)ON=C(CS(C)(=O)=O)C(C)(C)C,6.92 min

row,Structure (SMILES),LC retention time
1,COc1cc2c(c3oc(=O)c4c(c13)CCOC4=O)C1C=COC1O2 (stereo unspecified),8 min
2,CNC(=O)C(C)SCCSP(=O)(OC)OC (stereo unspecified),7.11 min
3,COP(=O)(OC)Oc1ccc([N+](=O)[O-])cc1,8.12 min
4,CC1=CC2OC3C(O)CC(C)(C34CO4)C2(CO)C(O)C1=O (stereo unspecified),9.63 min
5,COC(=O)c1ccccc1CS(=O)(=O)NC(=O)Nc1nc(OC)cc(OC)n1,9.3 min
6,C=C(C)C1Cc2c(ccc3c2OC2COc4cc(OC)c(OC)cc4C2C3=O)O1 (stereo unspecified),10.3 min
7,CCNc1nc(NCC)nc(SC)n1,8.62 min
8,CC1(c2ccc(Oc3ccccc3)cc2)OC(=O)N(Nc2ccccc2)C1=O (stereo unspecified),10.2 min
9,CCCCc1c(C)nc(NCC)nc1OS(=O)(=O)N(C)C,9.87 min
10,CCOC(=O)C(SP(=S)(OC)OC)c1ccccc1 (stereo unspecified),10.1 min
11,COc1cc2c(c3oc(=O)c4c(c13)CCC4=O)C1CCOC1O2 (stereo unspecified),8.26 min
12,Cc1ccc2nc3sc(=O)sc3nc2c1,9.19 min
13,Cc1nn(C)c(Oc2ccccc2)c1C=NOCc1ccc(C(=O)OC(C)(C)C)cc1,11.2 min
14,COCC(=O)N(c1c(C)cccc1C)C(C)C(=O)OC (stereo unspecified),9.04 min
15,CCOP(=S)(OCC)Oc1ccc(=O)n(-c2ccccc2)n1,9.71 min
16,CCOC(=O)CC(SP(=S)(OC)OC)C(=O)OCC (stereo unspecified),9.59 min
17,CC1(C)C(C(=O)OC(C#N)c2cccc(Oc3ccccc3)c2)C1(C)C (stereo unspecified),11 min
18,CCSCCSP(=S)(OC)OC,8.94 min
19,CCCSP(=O)(OCC)SCCC,9.93 min
20,CC(C)C1(C)N=C(c2ncccc2C(=O)O)NC1=O (stereo unspecified),6.79 min
21,CCS(=O)Cc1ccccc1OC(=O)NC (stereo unspecified),7.09 min
22,Cc1cc(=O)[nH]o1,5.67 min

row,Structure (SMILES),LC retention time
1,CNC(=O)C=C(C)OP(=O)(OC)OC,6.58 min
2,CCOC1Oc2ccc(OS(C)(=O)=O)cc2C1(C)C (stereo unspecified),9.42 min
3,COC(=O)c1ccccc1S(=O)(=O)NC(=O)Nc1nc(C)nc(OC)n1,8.43 min
4,COP(=S)(NC(C)C)Oc1ccccc1C(=O)OC(C)C (stereo unspecified),8.98 min
5,CCOc1ccc2c(c1)C(C)=CC(C)(C)N2,9.07 min
6,CCOP(=S)(OCC)SCSP(=S)(OCC)OCC,10.8 min
7,CC(C)(C)c1ccc(CCOc2ncnc3ccccc23)cc1,11.8 min
8,CCCC(=NOCC)C1=C(O)CC(CC(C)SCC)CC1=O (stereo unspecified),10.7 min
9,CCOP(=S)(OCC)SCSC(C)(C)C,7.2 min
10,COC(=O)Nc1nc2ccccc2[nH]1,6.3 min
11,Cc1ccc(OP(=O)(Oc2ccc(C)cc2)Oc2ccc(C)cc2)cc1,11.9 min
12,CCOP(=S)(OCC)Oc1cc(C)nc(N(CC)CC)n1,10.7 min
13,CNC(=O)ON=C(CS(C)=O)C(C)(C)C (stereo unspecified),6.31 min
14,COc1nn(CSP(=S)(OC)OC)c(=O)s1,9.26 min
15,CC(Cc1ccc(C(C)(C)C)cc1)CN1CC(C)OC(C)C1 (stereo unspecified),9.38 min
16,Cc1nnc(-c2ccccc2)c(=O)n1N,7.23 min
17,CON(C(=O)c1cc(C)oc1C)C1CCCCC1,10.2 min
18,CNC(=O)Oc1cc(C)c(S(C)=O)c(C)c1 (stereo unspecified),7.09 min
19,CCC(CC)Nc1c([N+](=O)[O-])cc(C)c(C)c1[N+](=O)[O-],11.1 min
20,CCOP(=S)(OCC)SCCS(=O)(=O)CC,8.89 min
21,CCOP(=S)(OCC)SCCS(=O)CC (stereo unspecified),8.89 min
22,O=c1[nH]c2c(c(=O)n1C1CCCCC1)CCC2,9.11 min

row,Structure (SMILES),LC retention time
1,CCOP(=S)(Oc1ccc([N+](=O)[O-])cc1)c1ccccc1 (stereo unspecified),9.71 min
2,CNC(=O)Oc1cccc2c1OC(C)(C)C2O (stereo unspecified),7.11 min
3,CNC(=O)ON=C(C)SC,6.05 min
4,CNC(=O)ON=C(SC)C(=O)N(C)C,5.75 min
5,CCOP(=S)(NC(C)C)Oc1ccccc1C(=O)OC(C)C (stereo unspecified),7.91 min
6,CNC(=O)Oc1cccc2c1OC(C)(C)O2,8.4 min
7,Cc1ccc(C(C)NC(=O)C(NC(=O)OC(C)C)C(C)C)cc1 (stereo unspecified),9.73 min
8,COc1cc(OC)nc(NC(=O)NS(=O)(=O)c2ncccc2C(=O)N(C)C)n1,8.01 min
9,CCOP(=S)(OCC)SCSCC,8.44 min
10,CC(=O)OCC12CC(OC(=O)CC(C)C)C(C)=CC1OC1C(O)C(OC(C)=O)C2(C)C12CO2 (stereo unspecified),9.3 min
11,CCS(=O)(=O)CCSP(=O)(OC)OC,6.13 min
12,C=CC=CCC1=C(C)C(OC(=O)C2C(C=C(C)C)C2(C)C)CC1=O (stereo unspecified),11 min
13,COCCOc1ccccc1S(=O)(=O)NC(=O)Nc1nc(OC)nc(OC)n1,8.14 min
14,CCOP(=O)(NC(C)C)Oc1ccc(S(C)(=O)=O)c(C)c1 (stereo unspecified),8.51 min
15,CC(C)N1C(=O)N(c2ccccc2)CSC1=NC(C)(C)C,10.7 min
16,CC(=O)OCC12CC(OC(=O)CC(C)C)C(C)=CC1OC1C(O)C(O)C2(C)C12CO2 (stereo unspecified),8.35 min
17,COc1cc2c(c3oc(=O)c4c(c13)CCC4=O)C1C=COC1O2 (stereo unspecified),8.44 min
18,CNC(=O)CSP(=O)(OC)OC,1.79 min
19,CCOc1ccc(NC(=O)OC(C)C)cc1OCC,9.37 min
20,CCOP(=O)(SC(C)CC)N1CCSC1=O (stereo unspecified),8.81 min

# From the RepoRT retention time repository (doi:10.1016/j.foodchem.2015.11.070)
